The target of one assay is T1, Thyroid Receptor β (Homo sapiens, UniProt P10828).
T1 construct: host or cells: engineered reporter cells of the kit
T1 sequence (P10828 1-461): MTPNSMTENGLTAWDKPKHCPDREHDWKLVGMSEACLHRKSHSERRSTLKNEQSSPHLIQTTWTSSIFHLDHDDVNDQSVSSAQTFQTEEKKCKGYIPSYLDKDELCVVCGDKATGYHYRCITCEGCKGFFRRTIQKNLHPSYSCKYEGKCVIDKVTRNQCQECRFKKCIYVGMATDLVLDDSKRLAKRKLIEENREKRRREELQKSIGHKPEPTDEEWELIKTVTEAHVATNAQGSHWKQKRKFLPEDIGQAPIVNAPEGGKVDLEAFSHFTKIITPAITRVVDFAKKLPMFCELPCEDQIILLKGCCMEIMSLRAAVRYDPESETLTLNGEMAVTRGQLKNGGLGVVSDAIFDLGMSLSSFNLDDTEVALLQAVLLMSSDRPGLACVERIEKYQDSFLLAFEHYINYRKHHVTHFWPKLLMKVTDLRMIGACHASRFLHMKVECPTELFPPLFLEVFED
Briefly: Target selectivity counterscreen, Thyroid Receptor β reporter assay. It is filed as cell-based. As to conditions: receptor agonist at ~EC80. The protocol: (§1) Target Selectivity Assays
(§2) To determine species selectivity, a Mouse PPARα Reporter Assay System was used (Indigo Biosciences, Cat. #M00111). Activity of test compounds to antagonize or agonize other isoforms of human PPAR, for example β/δ and γ, were assessed using the corresponding kits from Indigo Biosciences (Cat. #IB00121 and #IB00101, respectively). In addition to PPAR activity, compounds were also screened for activity against other nuclear hormone receptors including Estrogen Receptor β, Glucocorticoid Receptor and Thyroid Receptor β using commercially available kits (Indigo Biosciences, Cat. #IB00411, IB00201 and IB01101, respectively). Each assay system from Indigo Biosciences uses technology analogous to the human PPARα kit, with the variance being that the cells used for each assay were engineered to over-express the receptor of interest. In addition, the appropriate receptor agonist (included with each kit) was used at ˜EC80 for assays in which antagonist potency was being assessed.
On the technique in general: The purpose of a counterscreen is to sort out artefacts and off-target activity.

In a further assay the target is T2, Glucocorticoid Receptor (Homo sapiens, UniProt P04150).
T2 construct: host or cells: engineered reporter cells of the kit
T2 sequence (P04150 1-777): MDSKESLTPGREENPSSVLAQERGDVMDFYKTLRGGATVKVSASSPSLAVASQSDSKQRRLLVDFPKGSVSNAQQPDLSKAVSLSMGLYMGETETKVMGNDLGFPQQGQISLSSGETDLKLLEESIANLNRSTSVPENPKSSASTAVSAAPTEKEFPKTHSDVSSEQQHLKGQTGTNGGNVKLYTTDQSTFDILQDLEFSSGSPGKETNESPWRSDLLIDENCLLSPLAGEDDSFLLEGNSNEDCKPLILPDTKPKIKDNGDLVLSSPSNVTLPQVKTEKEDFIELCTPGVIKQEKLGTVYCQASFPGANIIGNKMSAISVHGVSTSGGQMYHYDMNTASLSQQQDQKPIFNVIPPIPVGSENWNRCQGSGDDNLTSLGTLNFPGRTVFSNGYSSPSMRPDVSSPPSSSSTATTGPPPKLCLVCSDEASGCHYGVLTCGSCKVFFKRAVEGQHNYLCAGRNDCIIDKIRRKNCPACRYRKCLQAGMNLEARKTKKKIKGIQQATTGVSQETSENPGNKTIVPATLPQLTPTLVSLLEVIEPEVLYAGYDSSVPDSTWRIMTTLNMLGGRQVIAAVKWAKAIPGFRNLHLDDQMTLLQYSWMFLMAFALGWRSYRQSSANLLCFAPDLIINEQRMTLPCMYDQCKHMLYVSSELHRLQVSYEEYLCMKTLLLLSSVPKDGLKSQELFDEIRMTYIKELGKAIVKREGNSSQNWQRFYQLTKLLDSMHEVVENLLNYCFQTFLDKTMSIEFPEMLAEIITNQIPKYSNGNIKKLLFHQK
Briefly: Target selectivity counterscreen, Glucocorticoid Receptor reporter assay. The settings on record: receptor agonist at ~EC80. It is filed as cell-based. The protocol:
as §1, §2

pIC50: −log10 of the molar value.

From patent US9676754B2, “Triazolone compounds and uses thereof” (Inception 2, Inc., priority 2012, dated 2017) come the findings set out here.

Regarding `CCOc1ccc(-c2cccc(CCCc3nn(Cc4ccc(C(C)(C)C)cc4)c(=O)n3CC)c2)cc1CC(=O)O` [Example 6, 2-(3′-(3-(1-(4-(tert-Butyl)benzyl)-4-ethyl-5-oxo-4,5-dihydro-1H-1,2,4-triazol-3-yl)propyl)-4-ethoxy-[1,1′-biphenyl]-3-yl)acetic acid], the results for the negative logarithm of the IC50 (pIC50) at Thyroid Receptor β and on Glucocorticoid Receptor were 4.51 and 4.74, respectively.

A word on the pIC50: it is the negative decadic logarithm of the IC50, by convention in mol/L.
